Measured values published in ChEMBL document CHEMBL5321227, “Lysosome-targeting phenalenones as efficient type I/II photosensitizers for anticancer photodynamic therapy” (Eur J Med Chem, 2023).
Active and inactive are the calls of the source. The calls are words filed in the database; no cut-off is given here.

How the values were obtained:
[1] = test system: MDA-MB-231; test: Anticancer activity against human MDA-MB-231 cells assessed as reduction in cell viability incubated for 24 hrs by CCK-8 assay; assay type: functional, cell-based; details: MDA-MB-231, 24 h
[2] = test system: MDA-MB-231; test: Anticancer activity against human MDA-MB-231 cells assessed as reduction in cell viability at 1 uM incubated for 24 hrs in presence of irradiation with 500 to 700nm and 12 J/cm^2 LED light by CCK-8 assay; assay type: functional, cell-based
[3] = test system: 4T1; test: Anticancer activity against mouse 4T1 cells assessed as fold increase in gamma-H2A.X protein expression at 1 uM preincubated for 2 hrs followed by photoirradiation with 500 to 700nm and 12 J/cm^2 LED light and measured after 24 hrs by Western blot analysis relative to control; assay type: functional; details: time 26 hrs
[4] = Induction of singlet oxygen production in ethanol assessed as change in absorption spectra at 380nm under photoirradiation with 550nm and 10 J/cm^2 LED light for 2 to 20 mins by ABDA based microplate reader analysis; assay type: functional; details: time 2-20 min
[5] = Induction of superoxide anion radical production in aqueous solution assessed as increase in fluorescence intensity at 5 uM under photoirradiation with 550nm and 10 J/cm^2 LED light and measured after 8 mins by DHR123 based fluorescence spectroscopic analysis
[6] = test system: 4T1; test: Anticancer activity against mouse 4T1 cells assessed as reduction in cell viability at 1 uM incubated for 24 hrs under photoirradiation with 500 to 700nm and 12 mW/cm^2 LED light by CCK-8 assay; assay type: functional, cell-based
[7] = test system: MDA-MB-231; test: Induction of intracellular ROS generation in human MDA-MB-231 cells assessed as fold increase in intracellular ROS level at 2.5 uM incubated for 2 hrs followed by under photoirradiation with 500 to 700nm and 12 J/cm^2 LED light by DCFH-DA staining based fluorometric analysis relative dark control group; assay type: functional
[8] = Drug uptake in human MDA-MB-231 cells assessed as increase in intracellular uptake at 5 uM incubated for 2 hrs by flow cytometry analysis; assay type: ADME, cell-based; details: mda-mb-231, 2 h
[9] = test system: 4T1; test: Anticancer activity against mouse 4T1 cells assessed as reduction in cell viability incubated for 24 hrs in presence of irradiation with 500 to 700nm and 12 J/cm^2 LED light by CCK-8 assay; assay type: functional, cell-based; details: 4T1, light or radiation study
[10] = test system: 4T1; test: Anticancer activity against mouse 4T1 cells assessed as fold increase in cleaved caspase-3 protein expression at 1 uM preincubated for 2 hrs followed by photoirradiation with 500 to 700nm and 12 J/cm^2 LED light and measured after 24 hrs by Western blot analysis relative to control; assay type: functional; details: time 26 hrs
[11] = test system: MDA-MB-231; test: Phototoxicity against human MDA-MB-231 cells assessed as reduction in cell viability incubated for 24 hrs in presence of irradiation with 500 to 700nm and 12 J/cm^2 LED light by CCK-8 assay; assay type: functional, cell-based
[12] = Drug localization in lysosome of human MDA-MB-231 cells assessed as increase in apparent yellow fluorescent signal at 5 uM incubated for 2 hrs by Lyso-Tracker Green, ER-Tracker Green, Mito-Tracker Green and Hoechst 33342 staining based confocal laser scanning microscopy; assay type: ADME, subcellular; details: mda-mb-231, 2 h
[13] = Drug uptake in human MDA-MB-231 cells assessed as increase in intracellular uptake at 5 uM incubated for 10 mins by flow cytometry analysis; assay type: ADME, cell-based; details: mda-mb-231, 10 min
[14] = Photostability of compound in EtOH assessed as compound decomposition at 50 uM incubated for 5 to 20 mins under photoirradiation with 550nm and 10 J/cm^2 LED light by UV-visible spectroscopic analysis; assay type: physicochemical; details: time 5-20 min
[15] = test system: MDA-MB-231; test: Anticancer activity against human MDA-MB-231 cells assessed as reduction in cell viability incubated for 24 hrs in presence of irradiation with 500 to 700nm and 12 J/cm^2 LED light by CCK-8 assay; assay type: functional, cell-based; details: MDA-MB-231, light or radiation study
[16] = test system: MDA-MB-231; test: Anticancer activity against human MDA-MB-231 cells assessed as number of dead cells at 2.5 uM incubated for 12 hrs by calcein-AM and propidium iodide staining based flow cytometry; assay type: functional, cell-based
[17] = Drug metabolism in carboxylesterase (unknown origin) assessed as formation of active photosensitizer 6-amino-5-iodo-1H-phenalen-1-one by measuring increase in fluorescence at 610nM at 10 uM under by fluorescence assay; assay type: ADME; details: human
[18] = test system: MDA-MB-231; test: Anticancer activity against human MDA-MB-231 cells assessed as reduction in cell viability at 0.01 to 10 uM incubated for 24 hrs by CCK-8 assay; assay type: functional, cell-based; details: dose 0.01-10 µM
[19] = test system: 4T1; test: Anticancer activity against mouse 4T1 cells assessed as reduction in cell viability at 0.01 to 10 uM incubated for 24 hrs by CCK-8 assay; assay type: functional, cell-based; details: dose 0.01-10 µM
[20] = Induction of singlet oxygen production in ethanol assessed as singlet oxygen quantum yield at 410nm under photoirradiation with 550nm and 10 mW/cm^2 LED light for 10 to 80 secs by DPBF based microplate reader analysis; assay type: functional; details: time 10-80 sec
[21] = test system: MDA-MB-231; test: Anticancer activity against human MDA-MB-231 cells assessed as number of dead cells at 2.5 uM preincubated for 12 hrs followed by photoirradiation with 500 to 700nm and 12 J/cm^2 LED light for 10 mins by calcein-AM and propidium iodide staining based flow cytometry; assay type: functional, cell-based; details: time 12.2 hrs
[22] = Drug metabolism in carboxylesterase (unknown origin) assessed as formation of active photosensitizer 6-amino-5-iodo-1H-phenalen-1-one at 10 uM under by LC-MS/MS analysis assay; assay type: ADME; details: human
[23] = test system: 4T1; test: Anticancer activity against mouse 4T1 cells assessed as reduction in cell viability preincubated for 12 hrs followed by photoirradiation with 500 to 700nm and 12 J/cm^2 LED light for 24 hrs by CCK-8 assay; assay type: functional, cell-based; details: 4T1, light or radiation study
[24] = Drug metabolism in human MDA-MB-231 cells assessed as increase in SR expression at 5 uM incubated for 12 hrs by flow cytometry analysis; assay type: ADME, cell-based; details: mda-mb-231, 12 h
[25] = Stability of compound in various pH; assay type: physicochemical
[26] = Stability of compound in GSH at 10 uM incubated for 30 mins by fluorescence assay; assay type: physicochemical; details: 0.5 h
[27] = test system: MDA-MB-231; test: Anticancer activity against human MDA-MB-231 cells assessed as reduction in cell viability preincubated for 12 hrs followed by photoirradiation with 500 to 700nm and 12 J/cm^2 LED light for 24 hrs by CCK-8 assay; assay type: functional, cell-based; details: MDA-MB-231, light or radiation study
[28] = Stability of compound in H2O2 at 10 uM incubated for 30 mins by fluorescence assay; assay type: physicochemical; details: 0.5 h
[29] = Stability of compound in gamma-glutamyl transpeptidase at 10 uM incubated for 30 mins by fluorescence assay; assay type: physicochemical; details: 0.5 h

Compound: Nc1c(I)cc2c3c(cccc13)C(=O)C=C2
- IC50 [1]: > 50 µM
- Activity [2]: Active
- fold change (FC) [3]: 2.36
- Activity [4]: Active
- Activity [5]: Active
- Activity [6]: Active
- fold change (FC) [7]: 5.54
- Drug uptake [8]: Active
- IC50 [9]: 0.59 µM
- fold change (FC) [10]: 3.09
- Activity [11]: Active
- Drug uptake [12]: Active
- Drug uptake [13]: Active
- Stability [14]: Stable
- IC50 [15]: 0.66 µM

Compound: O=C(Nc1c(I)cc2c3c(cccc13)C(=O)C=C2)c1ccccc1
- Activity [16]: inactive
- Drug metabolism [17]: Metabolite_Detected
- Activity [18]: Active
- Activity [19]: Active
- Activity [20]: 0.1
- Activity [21]: Active
- Drug metabolism [22]: Metabolite_Detected
- IC50 [23]: 4.8 µM
- Drug metabolism [24]: Metabolite_Detected
- Stability [25]: Stable
- Stability [26]: Stable
- IC50 [27]: 4 µM
- Stability [14]: Stable
- Stability [28]: Stable
- Stability [29]: Stable

Compound: Nc1ccc2c3c(cccc13)C(=O)C=C2
- Activity [4]: inactive
